Measured values reported in patent US9789102B2, “H3 receptor antagonist for use in the treatment of alzheimer's disease” (SANOFI, priority 2012, dated 2017).

Test system: protein tau phosphorylation at AD-2 epitope
Test: Western blot of tau phosphorylation at AD-2 epitope after single administration (Example 1)
Type: in vivo
Settings: THY-Tau22 mice
Protocol: For immunoblot analysis, frozen mouse tissues (either hippocampus or cortex) were homogenized using a Precellys 24 tissue homogenizer in 350 μl RIPA buffer from Cell Signaling (20 mM Tris-HCl (pH 7.5), 150 mM NaCl, 1 mM Na2 EDTA, 1 mM EGTA, 1% NP-40, 1% sodium deoxycholate, 2.5 mM sodium pyrophosphate, 1 mM beta-glycerophosphate, 1 mM Na3VO4, 1 μg/ml leupeptin) to which proteases inhibitors (Sigma cocktail 1% v/v) and phosphatases inhibitors (okadaic acid 1 μM, sodium fluoride 100 mM) were added. After centrifugation, 16000×g 4° C. for 10 minutes, protein content in supernatants was determined with BioRad DC Protein Assay kit, using BSA as a standard. […] Tau protein was detected using the following mouse antibody: AD-2 1/20.000^e (Biorad, 56484) which recognizes tau protein phosphorylated on Ser396 and Ser404. […]
Following incubation with primary antibodies, blots were rinsed in TBS Tween 0.1% and incubated for 1 hour at room temperature in an anti-mouse IgG horseradish peroxidase (HRP)-linked secondary antibody 1/10,000^e (GE healthcare, NA9310) diluted in 5% non-fat dry milk in TBS Tween 0.1%. […] Quantification of immunoreactive signal was performed using Multigauge V3.0 software (FUJIFILM). […]

For `CN1CCC[C@H]1CCNS(=O)(=O)c1ccc2c(c1)CN(CC1CCCCC1)CC2` [2-(cyclohexylmethyl)-N-{2-[(2S)-1-methylpyrrolidin-2-yl]ethyl}-1,2,3,4-tetrahydroisoquinoline-7-sulfonamide difumarate monohydrate], the “effect on protein tau phosphorylation at AD-2 epitope in the cortex” value (3 mg/kg per os) was “did not elicit any effect” and the “effect on protein tau phosphorylation at AD-2 epitope in the cortex” value (10 mg/kg per os) was “did not elicit any effect”.
